Laboratory results: the NIST ThermoML archive (doi:10.1016/j.jct.2018.03.017)
± gives the expanded uncertainty stated by the source.

How the values were obtained:
[1] = 96 kPa, Liquid, Pycnometric method
[2] = xn = mol fraction of the nth substance listed; settings: 96 kPa, Liquid, Pycnometric method, x2 = 0

mass density ([1]; 288.15 K) [kg/m3] | mass density ([1]; 293.15 K) [kg/m3] | mass density ([1]; 298.15 K) [kg/m3] | mass density ([1]; 303.15 K) [kg/m3] | mass density ([1]; 308.15 K) [kg/m3] | mass density ([1]; 313.15 K) [kg/m3] | mass density ([1]; 318.15 K) [kg/m3] | mass density ([1]; 323.15 K) [kg/m3] | mass density ([1]; 328.15 K) [kg/m3] | mass density ([2]; 288.15 K) [kg/m3] | mass density ([2]; 293.15 K) [kg/m3] | mass density ([2]; 298.15 K) [kg/m3] | mass density ([2]; 303.15 K) [kg/m3] | mass density ([2]; 308.15 K) [kg/m3] | mass density ([2]; 313.15 K) [kg/m3] | mass density ([2]; 318.15 K) [kg/m3] | mass density ([2]; 323.15 K) [kg/m3] | mass density ([2]; 328.15 K) [kg/m3] | SMILES
1020.6 ± 8.2 | 1017.1 ± 8.2 | 1014.1 ± 8.2 | 1010.9 ± 8.2 | 1007.4 ± 8.2 | 1004.6 ± 8.2 | 1000.8 ± 8.2 | 998.4 ± 8.2 | 994.2 ± 8.2 | – | – | – | – | – | – | – | – | – | C1CCC2=NCCCN2CC1 [1,8-diaza-7-bicyclo[5.4.0]undecene]
1262.7 ± 8.2 | 1260.5 ± 8.2 | 1257.2 ± 8.2 | 1254.8 ± 8.2 | 1251.5 ± 8.2 | 1248.9 ± 8.2 | 1246 ± 8.2 | 1242.4 ± 8.2 | 1240.5 ± 8.2 | – | – | – | – | – | – | – | – | – | OCC(O)CO [glycerol]
– | – | – | – | – | – | – | – | – | 1262.7 ± 8.2 | 1260.5 ± 8.2 | 1257.2 ± 8.2 | 1254.8 ± 8.2 | 1251.5 ± 8.2 | 1248.9 ± 8.2 | 1246 ± 8.2 | 1242.4 ± 8.2 | 1240.5 ± 8.2 | OCC(O)CO [glycerol] + C1CCC2=NCCCN2CC1
